Laboratory results reported in patent publication US8563545B2, “Compound useful for the treatment of degenerative and inflammatory diseases” (Galapagos NV, priority 2009, dated 2013).
Where “and” joins values, the source holds several entries; their conditions need not be identical. Equal values may be shown once. Read-outs that look alike come from different tables or passages of the source.

Experiments:
[1] = Plasma protein binding (equilibrium dialysis), rat; type: in vitro ADME; settings: 10 μM, 4 hrs at 37° C.
Procedure: (§1) A 10 mM stock solution of the compound in DMSO was diluted with a factor 5 in DMSO. This solution was further diluted in freshly thawed human, rat, mouse or dog plasma (BioReclamation INC) with a final concentration of 10 μM and final DMSO concentration of 0.5% (5.5 μL in 1094.5 μL plasma in a PP-Masterblock 96 well (Greiner, Cat no. 780285))
(§2) A Pierce Red Device plate with inserts (ThermoScientific, Cat no. 89809) was prepared and filled with 750 μL PBS in the buffer chamber and 500 μL of the spiked plasma in the plasma chamber. The plate was incubated for 4 hrs at 37° C. while shaking at 230 rpm. After incubation, 120 μL of both chambers was transferred to 360 μL acetonitrile in a 96-well round bottom, PP deep-well plates (Nunc, Cat no. 278743) and sealed with an aluminum foil lid. The samples were mixed and placed on ice for 30 min. This plate was then centrifuged 30 min at 1200 rcf at 4° C. and the supernatant was transferred to a 96 v-bottom PP plate (Greiner, 651201) for analysis on LCMS.
(§3) The plate is sealed with sealing mats (MA96RD-04S) of www.kinesis.co.uk and samples are measured at room temperature on LCMS (ZQ 1525 from Waters) under optimized conditions using Quanoptimize to determine the appropriate mass of the molecule.
(§4) The samples were analyzed on LCMS with a flow rate of […]. Solvent A was 15 mM ammonia and solvent B was acetonitrile. The sample was run under positive ion spray on an XBridge C18 3.5 μM (2.1×30 mm) column, from Waters. The solvent gradient has a total run time of 2 minutes and ranges from 5% B to 95% B.
(§5) Peak area from the compound in the buffer chamber and the plasma chamber are considered to be 100% compound.

Aqueous solubility = type: physicochemical; settings: kinetic from dmso stock
Procedure: Starting from a 10 mM stock in DMSO, a serial dilution of the compound was prepared in DMSO. The dilution series was transferred to a 96 NUNC Maxisorb plate F-bottom (Cat no. 442404) and 0.2M phosphate buffer pH7.4 or 0.1M citrate buffer pH 3.0 at room temperature was added.
The final concentration ranged from 200 μM to 2.5 μM in 5 equal dilution steps. […] 200 μM Pyrene was added to the corner points of each 96 well plate and served as a reference point for calibration of Z-axis on the microscope.
The assay plates were sealed and incubated for 1 hr at 37° C. while shaking at 230 rpm. The plates were then scanned under a white light microscope, yielding individual pictures of the precipitate per concentration. The precipitate was analyzed and converted into a number which was plotted onto a graph. The first concentration at which the compound appears completely dissolved is the concentration is reported below, however the true concentration lies somewhere between this concentration and one dilution step higher.
Solubility values are reported in μg/mL

[2] = Plasma protein binding (equilibrium dialysis), human; type: in vitro ADME; settings: 10 μM, 4 hrs at 37° C.
Procedure: as §1, §2, §3, §4, §5

Caco2 permeability = type: in vitro ADME; settings: human; for Papp at 1 h, 10 µM: pH 7.4, Caco-2, 10 μM; for efflux ratio at 1 h, 10 µM: Caco-2, pH 7.4, Papp B>A/Papp A>B
Procedure: Bi-directional Caco-2 assays were performed as described below. Caco-2 cells were obtained from European Collection of Cell Cultures (ECACC, cat 86010202) and used after a 21 day cell culture in 24-well Transwell plates (Fisher TKT-545-020B).
2×10^5 cells/well were seeded in plating medium consisting of DMEM+GlutaMAXI+1% NEAA+10% FBS (FetalClone II)+1% Pen/Strep. The medium was changed every 2-3 days.
Test and reference compounds (propranolol and rhodamine123 or vinblastine, all purchased from Sigma) were prepared in Hanks' Balanced Salt Solution containing 25 mM HEPES (pH7.4) and added to either the apical (125 μL) or basolateral (600 μL) chambers of the Transwell plate assembly at a concentration of 10 μM with a final DMSO concentration of 0.25%.
50 μM Lucifer Yellow (Sigma) was added to the donor buffer in all wells to assess integrity of the cell layers by monitoring Lucifer Yellow permeation. As Lucifer Yellow (LY) cannot freely permeate lipophilic barriers, a high degree of LY transport indicates poor integrity of the cell layer.
After a 1 hr incubation at 37° C. while shaking at an orbital shaker at 150 rpm, 70 μL aliquots were taken from both apical (A) and basal (B) chambers and added to 100 μL1 50:50 acetonitrile:water solution containing analytical internal standard (0.5 μM carbamazepine) in a 96 well plate.
Concentrations of compound in the samples were measured by high performance liquid-chromatography/mass spectroscopy (LC-MS/MS).
The Efflux ratios, as an indication of active efflux from the apical cell surface, were calculated using the ratio of Papp B>A/Papp A>B.

JAK2 = JAK2 (Homo sapiens (Human), UniProt O60674); experiment: JAK2 inhibition assay; type: biochemical
Procedure: After 90 min at 30° C., reactions were stopped by adding of 25 μL/well of 150 mM phosphoric acid. […] Plates were washed 6 times with 300 μL per well of a 75 mM phosphoric acid solution and the bottom of the plates was sealed. 40 μL/well of Microscint-20 was added, the top of the plates was sealed and readout was performed using the Topcount (Perkin Elmer). Kinase activity was calculated by subtracting counts per minute (cpm) obtained in the presence of a positive control inhibitor (10 μM staurosporine) from cpm obtained in the presence of vehicle. The ability of a test compound to inhibit this activity was determined as:
Percentage inhibition=((cpm determined for sample with test compound present−cpm determined for sample with positive control inhibitor)divided by(cpm determined in the presence of vehicle−cpm determined for sample with positive control inhibitor))*100.
Dose dilution series were prepared for the compounds enabling the testing of dose-response effects in the JAK2 assay and the calculation of the IC50 for each compound.

[3] = 0.2 M phosphate buffer pH 7.4, 37 °C, pH 7.4, aqueous buffer, 0.2M phosphate buffer pH7.4, read-out: Aqueous solubility pH 7.4
[4] = 37 °C, aqueous buffer, 0.1M citrate buffer pH 3.0, read-out: Aqueous solubility pH 3.0

JAK2, sequence (O60674 808-1132): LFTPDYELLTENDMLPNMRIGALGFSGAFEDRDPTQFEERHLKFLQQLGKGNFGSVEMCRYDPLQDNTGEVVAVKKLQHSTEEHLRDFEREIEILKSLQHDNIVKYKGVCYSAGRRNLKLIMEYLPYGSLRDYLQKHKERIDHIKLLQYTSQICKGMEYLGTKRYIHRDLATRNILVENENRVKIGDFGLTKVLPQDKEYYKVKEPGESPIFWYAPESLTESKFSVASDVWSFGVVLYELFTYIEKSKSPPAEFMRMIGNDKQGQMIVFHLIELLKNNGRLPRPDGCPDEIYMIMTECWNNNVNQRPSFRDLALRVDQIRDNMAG

percentage bound to plasma, Rat [1] [%] | solubility at 1 h (Aqueous solubility; [3]) [mg/mL] | solubility at 1 h (Aqueous solubility; [4]) [mg/mL] | percentage bound to plasma, Human [2] [%] | Papp at 1 h, 10 µM (Caco2 permeability) [nm/s] | IC50 (JAK2) | efflux ratio at 1 h, 10 µM (Caco2 permeability) | SMILES
65.7 | > 0.085 | > 0.085 | 76.4 | 33.3 | – | – | O=C(Nc1nc2cccc(-c3ccc(CN4CCS(=O)(=O)CC4)cc3)n2n1)C1CC1 [Compound 1, Cyclopropanecarboxylic acid {5-[4-(1,1-dioxo-1-thiomorpholin-4-ylmethyl)-phenyl]-[1,2,4]triazolo [1,5-a]pyridin-2-yl}-amide]
64.5 | > 0.038 | > 0.038 | 70.5 | 250 | 0.0387 µM and 0.152 µM and 0.185 µM | – | O=C(Nc1nc2cccc(-c3ccc(CN4CCOCC4)cc3)n2n1)C1CC1 [Compound 2, N-(5-(4-(morpholinomethyl)phenyl)-[1,2,4]triazolo[1,5-a]pyridin-2-yl)cyclopropanecarboxamide]
51 | > 0.0879 | > 0.0879 | – | 0.5 | 0.0654 µM | 97.6 | O=C(Nc1nc2cccc(-c3ccc(C(=O)N4CCS(=O)(=O)CC4)cc3)n2n1)C1CC1 [Compound 10, Cyclopropanecarboxylic acid {5-[4-(1,1-dioxo-1-thiomorpholine-4-carbonyl)-phenyl]-[1,2,4]triazolo [1,5-a]pyridin-2-yl}-amide]
76.5 | – | – | 91.25 | 365 | 0.0155 µM | 0.9 | O=C(Nc1nc2cccc(-c3ccc(CN4CCC(F)(F)CC4)cc3)n2n1)C1CC1 [Compound 11, Cyclopropanecarboxylic acid {5-[4-(4,4-difluoro-piperidin-1-ylmethyl)-phenyl]-[1,2,4]triazolo [1,5-a]pyridin-2-yl}-amide]
